Like-named read-outs stand apart in the source and are kept apart here.
What was measured:
DMPK2 = test: KINOMEscan; format: binding; settings: 1000 nM
CAMK1D = test: KINOMEscan; format: binding; settings: 1000 nM
DAPK3 = test: KINOMEscan; format: binding; settings: 1000 nM
PAK4 = test: KINOMEscan; format: binding; settings: 1000 nM
MLK1 = test: KINOMEscan; format: binding; settings: 1000 nM
MEK4 = test: KINOMEscan; format: binding; settings: 1000 nM
AURKA = test: KINOMEscan; format: binding; settings: 1000 nM
TGFBR2 = test: KINOMEscan; format: binding; settings: 1000 nM
PIKFYVE = test: KINOMEscan; format: binding; settings: 1000 nM
EPHA4 = test: KINOMEscan; format: binding; settings: 1000 nM
VPS34 = test: KINOMEscan; format: binding; settings: 1000 nM
MELK = test: KINOMEscan; format: binding; settings: 1000 nM
AXL = test: KINOMEscan; format: binding; settings: 1000 nM
DRAK1 = test: KINOMEscan; format: binding; settings: 1000 nM
DDR1 = test: KINOMEscan; format: binding; settings: 1000 nM
TLK2 = test: KINOMEscan; format: binding; settings: 1000 nM
SYK = test: KINOMEscan; format: binding; settings: 1000 nM
[1] = in vivo pharmacokinetic study; set-up: species or system rats; settings: male, Sprague-Dawley, rat, plasma; for MRT inf: read-out: MRT (0- ∞)
TAOK2 = test: KINOMEscan; format: binding; settings: 1000 nM
BMX = biological target: T1, BMX (Homo sapiens, UniProt P51813); test: KINOMEscan; format: binding; settings: 1000 nM
T1 construct: purchased Invitrogen (Carlsbad, CA, USA)
T1 sequence (P51813 1-675): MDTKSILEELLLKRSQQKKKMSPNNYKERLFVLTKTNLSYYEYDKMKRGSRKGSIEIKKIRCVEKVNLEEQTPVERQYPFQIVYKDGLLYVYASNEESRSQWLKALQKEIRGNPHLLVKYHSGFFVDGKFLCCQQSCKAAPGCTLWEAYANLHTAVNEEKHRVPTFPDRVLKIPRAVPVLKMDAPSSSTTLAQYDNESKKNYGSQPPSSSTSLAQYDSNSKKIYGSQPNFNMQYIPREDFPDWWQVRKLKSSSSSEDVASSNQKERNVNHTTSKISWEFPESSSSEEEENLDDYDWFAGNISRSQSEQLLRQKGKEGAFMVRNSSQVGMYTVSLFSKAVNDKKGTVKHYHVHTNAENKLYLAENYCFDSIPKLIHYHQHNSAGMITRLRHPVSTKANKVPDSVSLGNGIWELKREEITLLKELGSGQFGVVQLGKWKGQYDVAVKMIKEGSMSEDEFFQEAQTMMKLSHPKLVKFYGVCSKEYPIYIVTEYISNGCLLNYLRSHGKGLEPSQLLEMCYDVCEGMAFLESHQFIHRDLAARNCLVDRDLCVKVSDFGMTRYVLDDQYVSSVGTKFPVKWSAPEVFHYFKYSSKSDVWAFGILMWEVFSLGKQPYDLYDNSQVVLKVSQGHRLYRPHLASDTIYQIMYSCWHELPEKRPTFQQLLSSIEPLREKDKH

NEK7 = test: KINOMEscan; format: binding; settings: 1000 nM
NEK1 = test: KINOMEscan; format: binding; settings: 1000 nM
PIK3CA(M1043I) = test: KINOMEscan; format: binding; settings: 1000 nM
PLK4 = test: KINOMEscan; format: binding; settings: 1000 nM
[2] = tested on: ABL1(F317I)-phosphorylated; test: KINOMEscan; format: binding; settings: 1000 nM
ERK1 = test: KINOMEscan; format: binding; settings: 1000 nM
MKNK2 = test: KINOMEscan; format: binding; settings: 1000 nM
KIT(D816V) = test: KINOMEscan; format: binding; settings: 1000 nM
MAP3K1 = test: KINOMEscan; format: binding; settings: 1000 nM
ITK = biological target: T2, ITK (Homo sapiens, UniProt Q08881); test: KINOMEscan; format: binding; settings: 1000 nM, read-out: Percent Control
T2 construct: purchased Invitrogen (Carlsbad, CA, USA)
T2 sequence (Q08881 1-620): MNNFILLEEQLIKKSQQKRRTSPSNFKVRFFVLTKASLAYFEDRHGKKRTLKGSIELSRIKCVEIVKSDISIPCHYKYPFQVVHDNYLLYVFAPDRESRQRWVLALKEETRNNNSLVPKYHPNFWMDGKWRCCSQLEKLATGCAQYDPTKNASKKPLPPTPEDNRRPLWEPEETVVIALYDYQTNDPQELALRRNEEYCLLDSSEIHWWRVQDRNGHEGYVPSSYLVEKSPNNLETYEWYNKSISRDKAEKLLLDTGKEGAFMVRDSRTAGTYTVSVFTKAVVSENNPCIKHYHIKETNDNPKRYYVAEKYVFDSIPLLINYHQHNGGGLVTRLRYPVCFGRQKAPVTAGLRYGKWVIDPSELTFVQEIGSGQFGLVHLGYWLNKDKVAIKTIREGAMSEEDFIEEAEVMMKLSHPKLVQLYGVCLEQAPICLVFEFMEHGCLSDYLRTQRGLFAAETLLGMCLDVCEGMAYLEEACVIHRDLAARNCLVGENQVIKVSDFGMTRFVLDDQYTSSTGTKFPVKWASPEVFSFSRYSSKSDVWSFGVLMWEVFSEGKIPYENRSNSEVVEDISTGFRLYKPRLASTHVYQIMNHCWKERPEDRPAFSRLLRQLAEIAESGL

BRSK1 = test: KINOMEscan; format: binding; settings: 1000 nM
HIPK3 = test: KINOMEscan; format: binding; settings: 1000 nM

Compound: C=CC(=O)Nc1cc(Nc2cc(-c3cccc(NC(=O)c4cc5c(s4)CCCC5)c3C)cn(C)c2=O)ccc1N1CCN(CC)CC1 [CHMFL-BTK-85]
- Percent Control (DMPK2): 100%
- Percent Control (CAMK1D): 100%
- Percent Control (DAPK3): 65%
- Percent Control (PAK4): 100%
- Percent Control (MLK1): 81%
- Percent Control (MEK4): 100%
- Percent Control (AURKA): 92%
- Percent Control (TGFBR2): 100%
- Percent Control (PIKFYVE): 78%
- Percent Control (EPHA4): 100%
- Percent Control (VPS34): 100%
- Percent Control (MELK): 99%
- Percent Control (AXL): 100%
- Percent Control (DRAK1): 97%
- Percent Control (DDR1): 100%
- Percent Control (TLK2): 100%
- Percent Control (SYK): 100%
- AUC(0-inf) ([1]; iv, Rats, I.V. 1mg/kg): 766 ± 261 ng·h/mL
- AUC(0-t) ([1]; iv, Rats, I.V. 1mg/kg): 747 ± 263 ng·h/mL
- Cmax ([1]; iv, Rats, I.V. 1mg/kg): 1080 ± 390 ng/mL
- Tmax ([1]; iv, Rats, I.V. 1mg/kg): 0.02 h
- half-life ([1]; iv, Rats, I.V. 1mg/kg): 1.6 ± 0.3 h
- MRT inf ([1]; iv, Rats, I.V. 1mg/kg): 1.6 ± 0.2 h
- AUC(0-inf) ([1]; po, Rats, P.O. 10mg/kg): 2160 ± 474 ng·h/mL
- Cmax ([1]; po, Rats, P.O. 10mg/kg): 296 ± 67 ng/mL
- Tmax ([1]; po, Rats, P.O. 10mg/kg): 6 h
- bioavailability ([1]; po, Rats, P.O. 10mg/kg): 29%
- half-life ([1]; po, Rats, P.O. 10mg/kg): 2.9 h
- MRT inf ([1]; po, Rats, P.O. 10mg/kg): 6.5 ± 0.1 h
- AUC(0-t) ([1]; rats, oral administration at 10 mg/kg): 2140 ng·h/mL
- Percent Control (TAOK2): 96%
- percent of control binding at 1 µM (BMX): 59%
- Percent Control (NEK7): 96%
- Percent Control (NEK1): 95%
- Percent Control (PIK3CA(M1043I)): 71%
- Percent Control (PLK4): 97%
- Percent Control [2]: 100%
- Percent Control (ERK1): 93%
- Percent Control (MKNK2): 100%
- Percent Control (KIT(D816V)): 71%
- Percent Control (MAP3K1): 99%
- remaining binding at 1 µM (ITK): 77%
- Percent Control (BRSK1): 100%
- Percent Control (HIPK3): 100%
